Test results: patent publication US10695346B2, “4,6-pyrimidinylene derivatives and uses thereof” (Dana-Farber Cancer Institute, Inc., priority 2015, dated 2020)

What was measured:
[1] = test system: TP53 wild type MCF7 cells; test: Cell proliferation assay (Cell TITER-GLO); details: even at 5 μM; FIG. 3D
Protocol: To determine cell proliferation, cells were plated at 2×10^3 cells per well of 96-well plate. Cells were incubated and assayed at indicated times using Cell TITER-GLO Luminescent Cell Viability assay (Promega). Cells were allowed to equilibrate to room temperature for 15 minutes, then an equal volume of the Cell TITER-GLO reagent was added to wells and incubated for 15 minutes on an orbital shaker. Luminescence was recorded according to the manufacturer's protocol.

[2] = target: T1, PIP4K2A (Homo sapiens, UniProt P48426); test: ADP-GLO assay on PIP4K2A; assay type: biochemical; details: 0.01 mM ATP, 0.05 mM diC8 PI(5)P
T1 sequence (P48426 1-406): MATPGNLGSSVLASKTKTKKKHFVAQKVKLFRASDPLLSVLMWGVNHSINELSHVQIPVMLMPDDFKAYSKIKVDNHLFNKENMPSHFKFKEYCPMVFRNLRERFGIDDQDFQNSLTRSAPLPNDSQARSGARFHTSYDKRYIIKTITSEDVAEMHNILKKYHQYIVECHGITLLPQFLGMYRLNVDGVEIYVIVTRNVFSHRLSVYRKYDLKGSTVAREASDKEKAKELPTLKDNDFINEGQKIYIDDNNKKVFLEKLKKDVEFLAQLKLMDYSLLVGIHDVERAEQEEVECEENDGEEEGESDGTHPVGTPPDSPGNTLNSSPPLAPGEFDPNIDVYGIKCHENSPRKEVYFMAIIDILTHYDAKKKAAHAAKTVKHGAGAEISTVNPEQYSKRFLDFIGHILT
Protocol: After a further incubation of 40 minutes, 40 μl of Kinase Detection Buffer was added. After a further incubation of 40 min, the […] was read on […] ENVISION for 1 sec/well.

Row | Compound | inhibition of TP53 wild type MCF7 cells [1] | IC50 [2]
1 | CN(C)C/C=C/C(=O)Nc1ccc(C(=O)Nc2cccc(Nc3cc(-c4cnc5[nH]ccc5c4)ncn3)c2)cc1 [Compound 8, (E)-N-(3-((6-(1H-pyrrolo[2,3-b]pyridin-5-yl)pyrimidin-4-yl)amino)phenyl)-4-(4-(dimethylamino)but-2-enamido)benzamide] | didn't inhibit | –
2 | CN(C)C/C=C/C(=O)NC1CCCC(C(=O)Nc2cccc(Nc3cc(-c4cnc5[nH]ccc5c4)ncn3)c2)C1 (centres unmarked) [THZ-CE-A-4-9, (E)-N-(3-((6-(1H-pyrrolo[2,3-b]pyridin-5-yl)pyrimidin-4-yl)amino)phenyl)-3-(4-(dimethylamino)but-2-enamido)cyclohexane-1-carboxamide] | – | 250 nM
